Assay results reported in patent EP0393529A1, “5,11-dihydro-6H-dipyrido [3,2-b:2',3'-e][1,4]diazepin-6-ones and their use in the prevention or treatment of AIDS” (Boehringer Ingelheim Pharmaceuticals Inc., priority 1989, dated 1990).
pIC50: −log10 of the molar value. Like-named read-outs stand apart in the source and are kept apart here.

Experiments:
[1] = target: T1, HIV-1 reverse transcriptase (Human immunodeficiency virus type 1 group M subtype B, UniProt P03367); experiment: Reverse Transcriptase (RT) Assay (RNA-dependent DNA polymerase activity, cell-free, 3H-dGTP incorporation); type: biochemical; conditions: read-out: RT Inhibition % @ 10µg/ml
T1 construct: Reverse transcriptase enzyme from the LAV strain; made in house; host or cells: E. coli strain JM109, clone pBRTprt1+ in vector pIBI21 (lac promoter)
Experimental: After removal of the insoluble debris by centrifugation, the protein is precipitated by the addition of 3 volumes of saturated aqueous ammonium sulfate.
The 2X concentrated stock reaction mixture is aliquoted and stored at -20°C. […] This enzyme assay has been adapted to a 96 well microtiter plate system, and has been previously described (6). […] Twenty µl of 0.12-0.5M EDTA are added to the first three wells of the microtiter plate.
This group serves as background polymerization which is subtracted from all other groups. Twenty-five µl of the 2X reaction mixture are added to all wells and the assay is allowed to incubate at room temperature for 60 minutes. […] The microtiter plate is incubated for 15 minutes at 4°C and the precipitate is fixed onto #30 glass fiber paper (Schleicher & Schuell) using a Skatron semi-automatic harvester. […] Each vial receives 2 mls of scintillation cocktail and is counted in a Beckman beta counter.

[2] = test system: HTLV-IIIB strain of HIV-1; experiment: Human T-Cell Culture Assay (syncytia formation in C8166 cells); type: cell-based; conditions: Human immunodeficiency virus 1, IIIB, 96 h, syncytia read four days after virus challenge, read-out: T-Cell Culture Assay(IC₅₀)
Experimental: In order to confirm that compounds which are active in the RT Assay also have the ability to inhibit HIV replication in a living system, compounds according to the invention were also tested in the human T-Cell Culture Assay described below.
Assay Theory: Formation of syncytia is a feature of in vitro cultures of CD4+ T-cells infected with HIV-1. In this assay, T-cells are treated with a putative replication inhibiting compound and then infected with HIV-1. After incubation the culture is checked for the formation of syncytia. The absence or reduction is the number of syncytia is used as a measure of the test compound's ability to inhibit HIV replication.
Assay Method: The target cells, designated C8166, are a subclone of human lymphoma cells of T-cell origin and are established at an initial density of 5x10⁴ per 100 ul in RPMI 1640 (+ 10% fetal bovine serum) culture medium in 96 well flat bottom plates. A selected amount of test compound, dissolved in DMSO is included. After 24 hours, 50-100 TCID50's (the dose that results in induced effect in 50% of test cultures) of the HTLV-IIIB strain of HIV-1 (2) are innoculated into each culture. Control cultures receive compound or virus only. […] The percent inhibition by the test compound is determined by comparison with control values. […]

Structure (SMILES)	inhibition at 10 µg/mL ([1]; 10µg/ml compound) [%]	pIC50 [2]	inhibition at 10 µg/mL [1] [%]
CCN1C(=O)c2cccnc2N(CC)c2ncccc21 [Example 4, 5,11-Diethyl-5,11-dihydro-6H-dipyrido[3,2-b:2′,3′-e][1,4]diazepin-6-one]	98	3.72	–
CCCN1c2ncccc2C(=O)N(C)c2cccnc21 [Example 3, 5,11-Dihydro-5-methyl-11-propyl-6H-dipyrido[3,2-b:2′,3′-e][1,4]diazepin-6-one]	94	–	–
CCCN1c2ncccc2NC(=O)c2cccnc21 [Example 2, 5,11-Dihydro-11-propyl-6H-dipyrido[3,2-b:2′,3′-e][1,4]diazepin-6-one]	94	–	–
CCN1c2ncccc2C(=O)N(C)c2cccnc21 [Example 8, 5,11-Dihydro-11-ethyl-5-methyl-6H-dipyrido[3,2-b:2′,3′-e][1,4]diazepin-6-one]	–	–	100
